Source: ChEMBL document CHEMBL1201862, “PubChem BioAssay data set” (2004)
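1) Cells in 96-well plates. 2) Compound, 48 h, 5 concentrations. 3) Linear interpolation between surrounding doses. 4) Unreached endpoint = highest concentration. GI50 = concentration required for 50% inhibition of growth.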 Active and inactive are the calls of the source. Cut-off read from the data, not from the text of the source: active = GI50 up to about 1.1 µM and inactive = higher.

How the values were obtained:
Test in all cases: NCI-60 cell line screen, 48 h
SF-295 = system: SF-295
SR = system: SR
HT-29 = system: HT-29
SF-268 = system: SF-268
SK-MEL-28 = system: SK-MEL-28
OVCAR-3 = system: OVCAR-3
MDA-N = system: MDA-N
NCI-H23 = system: NCI-H23
UACC-62 = system: UACC-62
ACHN = system: ACHN
UACC-257 = system: UACC-257
SK-OV-3 = system: SK-OV-3
RPMI-8226 = system: RPMI-8226
786-0 = system: 786-0
COLO 205 = system: COLO 205
HCC 2998 = system: HCC 2998
HOP-92 = system: HOP-92
HOP-62 = system: HOP-62
K562 = system: K562
MDA-MB-231 = system: MDA-MB-231

| SMILES | GI50 (SF-295) | GI50 (SR) | GI50 (HT-29) | GI50 (SF-268) | GI50 (SK-MEL-28) | GI50 (OVCAR-3) | GI50 (MDA-N) | GI50 (NCI-H23) | GI50 (UACC-62) | GI50 (ACHN) | GI50 (UACC-257) | GI50 (SK-OV-3) | GI50 (RPMI-8226) | GI50 (786-0) | GI50 (COLO 205) | GI50 (HCC 2998) | GI50 (HOP-92) | GI50 (HOP-62) | GI50 (K562) | GI50 (MDA-MB-231) |
| --- | --- | --- | --- | --- | --- | --- | --- | --- | --- | --- | --- | --- | --- | --- | --- | --- | --- | --- | --- | --- |
| CC1(C(=O)O)CCC2(C)CCC3(C)C(=CC(=O)C4C5(C)CCC(O)C(C)(C)C5CCC43C)C2C1 (configuration not stated) | 26.5 µM (inactive) | 24.3 µM (inactive) | 20.2 µM (inactive) | 27.4 µM (inactive) | 22.1 µM (inactive) | 19.3 µM (inactive) | 38.7 µM (inactive) | 21.2 µM (inactive) | 21 µM (inactive) | 22.6 µM (inactive) | 33.9 µM (inactive) | 43.4 µM (inactive) | > 10 µM (inactive) | 42.1 µM (inactive) | 38.8 µM (inactive) | 23.1 µM (inactive) | – | – | – | – |
| O=c1[nH]nc(Cc2ccccc2)[nH]1 | > 100 µM (inactive) | 44.6 µM (inactive) | > 100 µM (inactive) | > 100 µM (inactive) | > 100 µM (inactive) | > 100 µM (inactive) | > 100 µM (inactive) | > 100 µM (inactive) | > 100 µM (inactive) | > 100 µM (inactive) | > 100 µM (inactive) | – | > 100 µM (inactive) | > 100 µM (inactive) | > 100 µM (inactive) | > 100 µM (inactive) | > 100 µM (inactive) | > 100 µM (inactive) | > 100 µM (inactive) | – |
| O=C(CCN1CCOCC1)c1ccc(Oc2ccc(F)cc2)cc1 | > 100 µM (inactive) | – | 18.7 µM (inactive) | – | 28 µM (inactive) | 22.3 µM (inactive) | 23.8 µM (inactive) | 26.7 µM (inactive) | 18.6 µM (inactive) | 17.9 µM (inactive) | 17.7 µM (inactive) | > 100 µM (inactive) | – | 17.1 µM (inactive) | 23 µM (inactive) | 37.2 µM (inactive) | 28.1 µM (inactive) | 50.2 µM (inactive) | 23.6 µM (inactive) | 19.6 µM (inactive) |
| CCOC(=O)C1=COC(C)(c2ccccc2)CC1=O (configuration not stated) | > 100 µM (inactive) | – | > 100 µM (inactive) | > 100 µM (inactive) | > 100 µM (inactive) | > 100 µM (inactive) | > 100 µM (inactive) | > 100 µM (inactive) | > 100 µM (inactive) | > 100 µM (inactive) | > 100 µM (inactive) | > 100 µM (inactive) | > 100 µM (inactive) | > 100 µM (inactive) | > 100 µM (inactive) | > 100 µM (inactive) | – | > 100 µM (inactive) | > 100 µM (inactive) | > 100 µM (inactive) |
| CCOC(=O)CCC(C(=O)OCC)n1nnc2ccc(Nc3c(C)[n+]([O-])c4ccc(Cl)cc4[n+]3[O-])cc21 (configuration not stated) | 27.8 µM (inactive) | 33 µM (inactive) | 52.7 µM (inactive) | 23.5 µM (inactive) | – | 32.1 µM (inactive) | 54.7 µM (inactive) | 33.5 µM (inactive) | 30.4 µM (inactive) | 28.6 µM (inactive) | 19.2 µM (inactive) | 60.1 µM (inactive) | 28.6 µM (inactive) | 44 µM (inactive) | 37.4 µM (inactive) | – | 23.8 µM (inactive) | 36.1 µM (inactive) | 45.8 µM (inactive) | – |
| CC(C)=C1C(=O)C[C@]2(C)C[C@H]3/C(=C(/C)CCC12)CC[C@@]3(C)O (some centres not stated) | > 50 µM (inactive) | 20.7 µM (inactive) | > 50 µM (inactive) | > 50 µM (inactive) | > 50 µM (inactive) | 37.7 µM (inactive) | – | > 50 µM (inactive) | > 50 µM (inactive) | > 50 µM (inactive) | > 50 µM (inactive) | > 50 µM (inactive) | > 50 µM (inactive) | > 50 µM (inactive) | 45 µM (inactive) | > 50 µM (inactive) | > 50 µM (inactive) | > 50 µM (inactive) | 22.2 µM (inactive) | > 50 µM (inactive) |
| O=c1c(/C=C/c2c(O)ccc3ccccc23)nnc2sc(-c3cccc(Br)c3)nn12 | 32.7 µM (inactive) | 4.72 µM (inactive) | 29.9 µM (inactive) | 4.51 µM (inactive) | 20.8 µM (inactive) | 3.89 µM (inactive) | 28.3 µM (inactive) | 14.7 µM (inactive) | 20.7 µM (inactive) | 16.1 µM (inactive) | 23.7 µM (inactive) | 30.1 µM (inactive) | 10.3 µM (inactive) | 26.6 µM (inactive) | 39.2 µM (inactive) | 20.1 µM (inactive) | – | 24.8 µM (inactive) | 19.9 µM (inactive) | – |
| Cc1ccccc1C1CC(=O)CC(c2ccccc2C)C12C(=O)NC(=O)NC2=O (configuration not stated) | > 100 µM (inactive) | > 100 µM (inactive) | > 100 µM (inactive) | > 100 µM (inactive) | > 100 µM (inactive) | > 100 µM (inactive) | – | > 100 µM (inactive) | > 100 µM (inactive) | > 100 µM (inactive) | > 100 µM (inactive) | > 100 µM (inactive) | 26.9 µM (inactive) | > 100 µM (inactive) | > 100 µM (inactive) | > 100 µM (inactive) | 19 µM (inactive) | > 100 µM (inactive) | > 100 µM (inactive) | > 100 µM (inactive) |
| O=[N+]([O-])c1cccc(-c2ncnc(-c3cccc([N+](=O)[O-])c3)n2)c1 | 41.6 µM (inactive) | – | > 100 µM (inactive) | 54 µM (inactive) | > 100 µM (inactive) | 35.9 µM (inactive) | > 100 µM (inactive) | 58.5 µM (inactive) | 27.4 µM (inactive) | – | 38.7 µM (inactive) | 27.1 µM (inactive) | > 100 µM (inactive) | 27.4 µM (inactive) | > 100 µM (inactive) | > 100 µM (inactive) | 19.5 µM (inactive) | 17.8 µM (inactive) | 48.6 µM (inactive) | 34.9 µM (inactive) |
| O/N=C1/COC(C(F)(F)F)(C(F)(F)F)C1 | > 100 µM (inactive) | 0.0573 µM (active) | > 100 µM (inactive) | > 100 µM (inactive) | > 100 µM (inactive) | > 100 µM (inactive) | – | > 100 µM (inactive) | > 100 µM (inactive) | > 100 µM (inactive) | > 100 µM (inactive) | > 100 µM (inactive) | > 100 µM (inactive) | > 100 µM (inactive) | > 100 µM (inactive) | > 100 µM (inactive) | > 100 µM (inactive) | > 100 µM (inactive) | – | > 100 µM (inactive) |
| COc1cc(NC(C)=O)ccc1C(=O)N/N=C/c1ccco1 | > 100 µM (inactive) | 26.7 µM (inactive) | > 100 µM (inactive) | > 100 µM (inactive) | > 100 µM (inactive) | > 100 µM (inactive) | > 100 µM (inactive) | > 100 µM (inactive) | > 100 µM (inactive) | 63 µM (inactive) | – | > 100 µM (inactive) | 77.6 µM (inactive) | > 100 µM (inactive) | 31.8 µM (inactive) | – | > 100 µM (inactive) | > 100 µM (inactive) | > 100 µM (inactive) | – |
| CC1(C)[C@@H]2CC[C@]1(C)[C@H](OC(=O)CSC#N)C2 | > 100 µM (inactive) | – | > 100 µM (inactive) | > 100 µM (inactive) | > 100 µM (inactive) | 30.8 µM (inactive) | > 100 µM (inactive) | > 100 µM (inactive) | > 100 µM (inactive) | > 100 µM (inactive) | > 100 µM (inactive) | > 100 µM (inactive) | – | 18.3 µM (inactive) | > 100 µM (inactive) | > 100 µM (inactive) | > 100 µM (inactive) | > 100 µM (inactive) | – | > 100 µM (inactive) |
| COc1ccc(N2C(=O)C(C#N)=C(SC)C(C#N)C2=O)cc1 (configuration not stated) | > 100 µM (inactive) | – | > 100 µM (inactive) | > 100 µM (inactive) | – | – | > 100 µM (inactive) | – | > 100 µM (inactive) | > 100 µM (inactive) | > 100 µM (inactive) | > 100 µM (inactive) | – | > 100 µM (inactive) | > 100 µM (inactive) | > 100 µM (inactive) | 46.6 µM (inactive) | > 100 µM (inactive) | > 100 µM (inactive) | > 100 µM (inactive) |
| Cn1c(=O)c2c(ncn2CCSS(=O)(=O)O)n(C)c1=O | > 100 µM (inactive) | – | 99.5 µM (inactive) | > 100 µM (inactive) | > 100 µM (inactive) | > 100 µM (inactive) | > 100 µM (inactive) | > 100 µM (inactive) | 53.2 µM (inactive) | > 100 µM (inactive) | > 100 µM (inactive) | > 100 µM (inactive) | > 100 µM (inactive) | > 100 µM (inactive) | > 100 µM (inactive) | – | > 100 µM (inactive) | 86.9 µM (inactive) | > 100 µM (inactive) | 45.9 µM (inactive) |
| CCCCCCCCCCCC(=O)OCC(O)CO (configuration not stated) [GLYCEROL MONOLAURATE] | > 100 µM (inactive) | – | 31.2 µM (inactive) | > 100 µM (inactive) | > 100 µM (inactive) | 76.9 µM (inactive) | 88.9 µM (inactive) | 67.3 µM (inactive) | > 100 µM (inactive) | > 100 µM (inactive) | > 100 µM (inactive) | > 100 µM (inactive) | – | > 100 µM (inactive) | > 100 µM (inactive) | – | > 100 µM (inactive) | > 100 µM (inactive) | – | > 100 µM (inactive) |
| C=C(CC[C@@H](C(=O)O)[C@H]1[C@H](O)C[C@@]2(C)C3=CC[C@@H](C(=C)C)[C@](C)(CCC(=O)O)C3=CC[C@]12C)C(C)C [PORICOIC ACID A] | 17.5 µM (inactive) | – | 17.6 µM (inactive) | – | 19.4 µM (inactive) | 19.1 µM (inactive) | 16.9 µM (inactive) | 16.9 µM (inactive) | 15.3 µM (inactive) | 17.6 µM (inactive) | 16.4 µM (inactive) | 18 µM (inactive) | – | 16.6 µM (inactive) | 23.1 µM (inactive) | 17.9 µM (inactive) | 16.6 µM (inactive) | – | 26.5 µM (inactive) | 20.8 µM (inactive) |
